# Experiment: method code SF, from DOI: 10.1021/js960111p, PMID: 9002468
# Conditions: not given
row,Compound,logP
1,Cn1ccc2ccccc21,2.55
2,Cc1ccc2[nH]c(C)cc2c1,3.02
3,Cc1ccc2[nH]ccc2c1,2.67
4,Oc1ccc2[nH]ccc2c1,1.29
5,COc1ccc2[nH]ccc2c1,2.08
6,c1ccc2c3c([nH]c2c1)CCCC3,3
7,Clc1ccc2[nH]ccc2c1,2.93

# Same assay, conditions: pH 12.0
row,Compound,logD
1,COc1ccc2c3c([nH]c2c1)C(C)NCC3 (stereo not drawn),1.37
2,c1ccc2c(c1)[nH]c1cnccc12,2.65
3,CC1NCCc2c1[nH]c1ccccc21 (stereo not drawn),2.06
4,COc1ccc2[nH]c3c(c2c1)CCNC3C (stereo not drawn),1.15
5,NCCc1c[nH]c2ccccc12,1.35
6,Cn1c2ccccc2c2ccccc21,3.99
7,Cc1nccc2c3ccccc3n(C)c12,3.01
8,c1ccc2c3c([nH]c2c1)CNCC3,1.98
9,Cc1nccc2c1[nH]c1ccccc12,2.89
10,CC1NCCc2c1[nH]c1ccc([N+](=O)[O-])cc21 (stereo not drawn),2.07
11,CC1NCCc2c1[nH]c1ccc(Cl)cc21 (stereo not drawn),2.3

# — the SangsterLogP compilation
